32 compounds from patent US20220363667A1 (Nippon Chemiphar Co., Ltd., priority 2018, published 2022) can be followed below.

Each structure is given as a SMILES string. Where a name gives a salt, the structure may show the parent alone.

This experiment has as its system SD rats. Description: Rat formalin test. As to conditions: po, 30 mg/kg orally once, pain behavior time from 15 to 30 minutes after formalin administration vs vehicle group, read-out: Inhibition ratio (pain behavior inhibition ratio). It is filed as in vivo. As for the experimental part: 30 mg/kg of a vehicle or a test substance was orally administrated to SD rats once, and according to the method described in McNamara C. R., Mandel-Brehm J., Bautista D. M., Siemens J., Deranian K. L., Zhao M., Hayward N. J., Chong J. A., Julius D., Moran M. M., Fanger C. M.: TRPA1 mediates formalin-induced pain. Proc. Natl. Acad. Sci. U.S.A. 104, 2007, 13525-13530, 50 μL of a 2.0% formalin solution as a pain-inducing substance was subcutaneously administered under the skin of the plantar plate of the right hind limb of each rat.
Regarding the evaluation, the pain behavior inhibition ratio was determined from the pain behavior time of each test substance-administered group with respect to the pain behavior time of the vehicle-administered group for 15 minutes measured from 15 minutes to 30 minutes after the administration.
For `O=C(Cc1ccc2cc[nH]c2c1)N[C@@H]1CCN(c2ccc(C(F)(F)F)nc2)C1` [Example 85, (R)-2-(1H-indol-6-yl)-N-(1-(6-(trifluoromethyl)pyridin-3-yl)pyrrolidin-3-yl)acetamide], the inhibition in vivo at 30 mg/kg was under 10%.
Consider `O=C(N[C@@H]1CCN(c2cncc(C(F)(F)F)c2)C1)[C@H]1C[C@@H]1c1nc2ccccc2o1` [Example 39, (1S,2S)-2-(benzo[d]oxazol-2-yl)-N—((R)-1-(5-(trifluoromethyl)pyridin-3-yl)pyrrolidin-3-yl)cyclopropane-1-carboxyamide], for which the inhibition in vivo at 30 mg/kg was at least 20%.
With `O=C(N[C@@H]1CCN(c2cncc(C(F)(F)F)c2)C1)[C@H]1C[C@@H]1c1nc2ccccc2[nH]1` [Example 71, (1S,2S)-2-(1H-benzo[d]imidazol-2-yl)-N—((R)-1-(5-(trifluoromethyl)pyridin-3-yl)pyrrolidin-3-yl)cyclopropane-1-carboxyamide] the figure was under 10%.
For `O=C(Cc1ccc(N2CCS(=O)(=O)CC2)cc1)N[C@@H]1CCN(c2cncc(C(F)(F)F)c2)C1` [Example 23, (R)-2-(4-(1,1-dioxidethiomorpholino)phenyl)-N-(1-(5-(trifluoromethyl)pyridin-3-yl)pyrrolidin-3-yl)acetamide] the value was under 10%.
With `O=C(N[C@@H]1CCN(c2cncc(C(F)(F)F)c2)C1)[C@H]1C[C@@H]1c1nc2cc(F)ccc2o1` [Example 49, (1S,2S)-2-(5-fluorobenzo[d]oxazol-2-yl)-N—((R)-1-(5-(trifluoromethyl)pyridin-3-yl)pyrrolidin-3-yl)cyclopropane-1-carboxyamide] the figure was at least 20%; with `O=C(N[C@@H]1CCN(c2ccc(C(F)(F)F)nc2)C1)[C@H]1C[C@@H]1c1nc2ccccc2[nH]1` [Example 54, (1S,2S)-2-(1H-benzo[d]imidazol-2-yl)-N—((R)-1-(6-(trifluoromethyl)pyridin-3-yl)pyrrolidin-3-yl)cyclopropane-1-carboxyamide], under 10%; with `N#CC1(NC(=O)Cc2ccc(C3CC3)cc2)CCN(c2cncc(C(F)(F)F)c2)C1` (centres unmarked) [Example 36, N-(3-cyano-1-(5-(trifluoromethyl)pyridin-3-yl)pyrrolidin-3-yl)-2-(4-cyclopropylphenyl)acetamide], under 10%.
In the case of `COc1ncc(N2CC[C@@H](NC(=O)Cc3ccc(C(C)C)cc3)C2)cc1C(F)(F)F` [Example 110, (R)-2-(4-isopropylphenyl)-N-(1-(6-methoxy-5-(trifluoromethyl)pyridin-3-yl)pyrrolidin-3-yl)acetamide], the inhibition in vivo at 30 mg/kg is at least 20%.
For `COC(=O)C1(NC(=O)Cc2ccc3cc[nH]c3c2)CCN(c2cncc(C(F)(F)F)c2)C1` (centres unmarked) [Example 37, Methyl 3-(2-(1H-indol-6-yl)acetamido)-1-(5-(trifluoromethyl)pyridin-3-yl)pyrrolidine-3-carboxylate] the value was under 10%; for `O=C(Cc1ccc2ncccc2c1)N[C@@H]1CCN(c2cncc(C(F)(F)F)c2)C1` [Example 77, (R)-2-(quinolin-6-yl)-N-(1-(5-(trifluoromethyl)pyridin-3-yl)pyrrolidin-3-yl)acetamide], under 10%.
With `O=C(Cc1ccc2cc[nH]c2c1)N[C@@H]1CCN(c2cncc(C(F)(F)F)c2)C1` [Example 124, (R)-2-(1H-indol-6-yl)-N-(1-(5-(trifluoromethyl)pyridin-3-yl)pyrrolidin-3-yl)acetamide] the figure was at least 20%.
With `O=C(Cc1ccc(C2CC2)cc1)N[C@@H]1CCN(c2cncc(C(F)(F)F)c2)C1` [Example 1, (R)-2-(4-cyclopropylphenyl)-N-(1-(5-(trifluoromethyl)pyridin-3-yl)pyrrolidin-3-yl)acetamide] the figure was at least 20%.
As to `O=C(N[C@@H]1CCN(c2cncc(C(F)(F)F)c2)C1)C1CC1c1ccc(Br)cc1` (single isomer, unassigned) [Example 100A], the inhibition in vivo at 30 mg/kg was at least 20%.
For the compound `O=C(Cc1ccc(C(F)(F)F)cc1F)N[C@@H]1CCN(c2cncc(C(F)(F)F)c2)C1` [Example 141, (R)-2-(2-fluoro-4-(trifluoromethyl)phenyl)-N-(1-(5-(trifluoromethyl)pyridin-3-yl)pyrrolidin-3-yl)acetamide], the inhibition in vivo at 30 mg/kg was under 10%.
For `O=C(Cc1ccc(C2CC2)cc1)N[C@H]1CN(c2nc(C(F)(F)F)cs2)CC12CC2` [Example 8, (R)-2-(4-cyclopropylphenyl)-N-(5-(4-(trifluoromethyl)thiazol-2-yl)-5-azaspiro[2.4]heptan-7-yl)acetamide] the value was under 10%.
With `O=C(Cc1ccc(C(F)(F)F)cc1)N[C@@H]1CCN(c2cncc(C(F)(F)F)c2)C1` [Example 123, (R)-2-(4-(trifluoromethyl)phenyl)-N-(1-(5-(trifluoromethyl)pyridin-3-yl)pyrrolidin-3-yl)acetamide] the figure was at least 20%; with `O=C(N[C@@H]1CCN(c2cnc(C(F)(F)F)nc2)C1)[C@H]1C[C@@H]1c1nc2ccccc2[nH]1` [Example 70, (1S,2S)-2-(1H-benzo[d]imidazol-2-yl)-N—((R)-1-(2-(trifluoromethyl)pyrimidin-5-yl)pyrrolidin-3-yl)cyclopropane-1-carboxyamide], under 10%.
In the case of `O=C(Cc1ccc(C(F)(F)F)cc1)N[C@@H]1CCN(c2cncc(C(F)(F)F)n2)C1` [Example 11, (R)-2-(4-(trifluoromethyl)phenyl)-N-(1-(6-(trifluoromethyl)pyrazin-2-yl)pyrrolidin-3-yl)acetamide], the inhibition in vivo at 30 mg/kg is at least 20%.
For `O=C(N[C@@H]1CCN(c2cncc(C(F)(F)F)c2)C1)C1CC1c1cc(Cl)cc(Cl)c1` (single isomer, unassigned) [Example 99A] the value was under 10%; for `CC(C)c1ccc(CC(=O)NC2CCN(c3cncc(C(F)(F)F)c3)CC2)cc1` [Example 109, 2-(4-Isopropylphenyl)-N-(1-(5-(trifluoromethyl)pyridin-3-yl)piperidin-4-yl)acetamide], at least 20%.
Regarding `O=C(Cc1ccc(N2CCOCC2)cc1)N[C@@H]1CCN(c2cncc(C(F)(F)F)c2)C1` [Example 181, (R)-2-(4-morpholinophenyl)-N-(1-(5-(trifluoromethyl)pyridin-3-yl)pyrrolidin-3-yl)acetamide], the inhibition in vivo at 30 mg/kg is at least 20%.
With `CC(C)c1ccc(CC(=O)NC2CN(c3cncc(C(F)(F)F)c3)C2)cc1` [Example 117, 2-(4-Isopropylphenyl)-N-(1-(5-(trifluoromethyl)pyridin-3-yl)azetidin-3-yl)acetamide] the figure was at least 20%; with `CC(C)(O)c1ccc(CC(=O)N[C@@H]2CCN(c3cncc(C(F)(F)F)c3)C2)cc1` [Example 131, (R)-2-(4-(2-hydroxypropan-2-yl)phenyl)-N-(1-(5-(trifluoromethyl)pyridin-3-yl)pyrrolidin-3-yl)acetamide], under 10%; with `CC(C)(C(=O)N[C@@H]1CCN(c2cncc(C(F)(F)F)c2)C1)c1ccc(C2CC2)cc1` [Example 135, (R)-2-(4-cyclopropylphenyl)-2-methyl-N-(1-(5-(trifluoromethyl)pyridin-3-yl)pyrrolidin-3-yl)propanamide], under 10%.
For `NC(C(=O)N[C@@H]1CCN(c2cncc(C(F)(F)F)c2)C1)c1ccc(C2CC2)cc1` (stereo partly drawn) [Example 137, 2-amino-2-(4-cyclopropylphenyl)-N—((R)-1-(5-(trifluoromethyl)pyridin-3-yl)pyrrolidin-3-yl)acetamide] the value was at least 20%; for `O=C(Cc1ccc(C2CC2)cc1)N[C@@H]1CCN(c2ccc(C(F)(F)F)nc2)C1` [Example 121, (R)-2-(4-cyclopropylphenyl)-N-(1-(6-(trifluoromethyl)pyridin-3-yl)pyrrolidin-3-yl)acetamide], under 10%; for `N#Cc1ncc(N2CC[C@@H](NC(=O)Cc3ccc(C4CC4)cc3)C2)cc1C(F)(F)F` [Example 12, (R)—N-(1-(6-cyano-5-(trifluoromethyl)pyridin-3-yl)pyrrolidin-3-yl)-2-(4-cyclopropylphenyl)acetamide], 10 to 20%.
For `CC(C)c1ccc(CC(=O)N[C@@H]2CCN(c3ccc(C(F)(F)F)nc3)C2)cc1` [Example 113, (R)-2-(4-isopropylphenyl)-N-(1-(6-(trifluoromethyl)pyridin-3-yl)pyrrolidin-3-yl)acetamide] the value was 10 to 20%; for `O=C(Cc1ccc(N2CCC(F)(F)C2)cc1)N[C@@H]1CCN(c2ccc(C(F)(F)F)nc2)C1` [Example 84, (R)-2-(4-(3,3-difluoropyrrolidin-1-yl)phenyl)-N-(1-(6-(trifluoromethyl)pyridin-3-yl)pyrrolidin-3-yl)acetamide], under 10%; for `CC(C)c1ccc(CC(=O)N[C@@H]2CCN(c3nc(C(F)(F)F)cs3)C2)cc1` [Example 112, (R)-2-(4-isopropylphenyl)-N-(1-(4-(trifluoromethyl)thiazol-2-yl)pyrrolidin-3-yl)acetamide], at least 20%.
In the case of `O=C(Cc1ccc(C2CC2)cc1)N[C@H]1CN(c2cncc(C(F)(F)F)c2)C[C@@H]1O` [Example 5, 2-(4-Cyclopropylphenyl)-N-((3S,4S)-4-hydroxy-1-(5-(trifluoromethyl)pyridin-3-yl)pyrrolidin-3-yl)acetamide], the inhibition in vivo at 30 mg/kg was at least 20%.
With `O=C(Cc1ccc2cccnc2c1)N[C@@H]1CCN(c2cncc(C(F)(F)F)c2)C1` [Example 79, (R)-2-(quinolin-7-yl)-N-(1-(5-(trifluoromethyl)pyridin-3-yl)pyrrolidin-3-yl)acetamide hydrochloride] the figure was under 10%.
